One compound from ChEMBL document CHEMBL1130081, “Inhibition of human telomerase by a G-quadruplex-interactive compound” (J Med Chem, 1997) can be followed below.

For this assay, the target named is Telomerase reverse transcriptase (Homo sapiens, UniProt O14746). The assay is described as follows: Inhibitory concentration against human telomerase.

By IC50 is commonly meant the midpoint of a concentration-inhibition curve.

Telomerase reverse transcriptase, sequence (O14746 whole entry): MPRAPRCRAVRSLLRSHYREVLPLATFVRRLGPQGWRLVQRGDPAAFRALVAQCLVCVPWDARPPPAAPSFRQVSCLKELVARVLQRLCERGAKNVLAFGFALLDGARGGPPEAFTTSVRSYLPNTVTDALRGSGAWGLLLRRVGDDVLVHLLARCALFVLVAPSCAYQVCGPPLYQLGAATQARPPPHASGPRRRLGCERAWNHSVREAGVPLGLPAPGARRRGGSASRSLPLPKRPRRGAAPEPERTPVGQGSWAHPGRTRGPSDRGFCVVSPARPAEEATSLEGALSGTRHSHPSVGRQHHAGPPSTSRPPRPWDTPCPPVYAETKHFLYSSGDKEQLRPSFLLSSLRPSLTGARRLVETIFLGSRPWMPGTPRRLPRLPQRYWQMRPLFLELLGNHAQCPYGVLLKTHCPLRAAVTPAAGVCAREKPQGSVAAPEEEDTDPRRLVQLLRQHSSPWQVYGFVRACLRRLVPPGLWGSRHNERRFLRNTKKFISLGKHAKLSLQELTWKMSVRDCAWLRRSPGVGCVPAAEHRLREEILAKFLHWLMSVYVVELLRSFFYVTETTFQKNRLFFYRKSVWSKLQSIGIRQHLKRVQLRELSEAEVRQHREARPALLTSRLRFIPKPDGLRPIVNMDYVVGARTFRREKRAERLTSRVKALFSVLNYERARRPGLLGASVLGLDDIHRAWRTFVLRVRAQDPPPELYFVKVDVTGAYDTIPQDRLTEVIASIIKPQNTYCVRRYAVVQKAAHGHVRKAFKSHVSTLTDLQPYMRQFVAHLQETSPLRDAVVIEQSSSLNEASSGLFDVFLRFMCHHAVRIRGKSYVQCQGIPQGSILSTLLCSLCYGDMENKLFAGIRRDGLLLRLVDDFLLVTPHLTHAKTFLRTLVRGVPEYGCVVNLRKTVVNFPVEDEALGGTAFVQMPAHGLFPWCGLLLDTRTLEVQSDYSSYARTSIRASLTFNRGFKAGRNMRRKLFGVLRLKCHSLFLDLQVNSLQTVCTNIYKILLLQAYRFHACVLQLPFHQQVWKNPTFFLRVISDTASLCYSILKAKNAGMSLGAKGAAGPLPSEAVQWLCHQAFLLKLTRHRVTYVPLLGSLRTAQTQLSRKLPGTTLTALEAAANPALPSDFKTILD

Compound `C[N+]1(CCC(=O)Nc2ccc3c(c2)C(=O)c2ccc(NC(=O)CC[N+]4(C)CCCCC4CO)cc2C3=O)CCCCC1CO` (stereo unspecified) yielded an IC50 of 23 µM.
